# From patent publication US12474342B2, “Methods for treating cancer and the use of biomarkers as a predictor of clinical sensitivity to therapies” (CELGENE CORPORATION, priority 2016, dated 2025)
# Where two headings read alike, the source gives them in different places.
# Experiments:
# Format in all cases: cell-based
# GSPT1 = GSPT1 (Homo sapiens, UniProt P15170+Q96SW2); assay: GSPT1 protein reduction, western analysis, AML patient PBMCs; set-up: reduction in GSPT1 protein level was evaluated in human normal PBMCs; endogenous in cells; host or cells: primary PBMCs from normal donors (ID 4328, 4379) and AML patients (ID 11SH, 09P6); details: PBMC sample 11SH (AML)
# healthy donor PBMCs = assay: Anti-proliferation, healthy donor PBMCs; details: Homo sapiens, PBMC; healthy donor PBMCs (data not shown)
# HNT-34 cells = assay: Anti-proliferation 72-hour CTG assay, HNT-34; details: Homo sapiens
# Protocol: A plethora of AML cell lines were treated with serial dilutions of Compound D. IC50 value of the anti-proliferation effect of Compound D (as determined in 72-hour CTG assays) in each cell line is summarized in Table 1.
# GSPT1, sequence (P15170 1-637 isoform P15170-3): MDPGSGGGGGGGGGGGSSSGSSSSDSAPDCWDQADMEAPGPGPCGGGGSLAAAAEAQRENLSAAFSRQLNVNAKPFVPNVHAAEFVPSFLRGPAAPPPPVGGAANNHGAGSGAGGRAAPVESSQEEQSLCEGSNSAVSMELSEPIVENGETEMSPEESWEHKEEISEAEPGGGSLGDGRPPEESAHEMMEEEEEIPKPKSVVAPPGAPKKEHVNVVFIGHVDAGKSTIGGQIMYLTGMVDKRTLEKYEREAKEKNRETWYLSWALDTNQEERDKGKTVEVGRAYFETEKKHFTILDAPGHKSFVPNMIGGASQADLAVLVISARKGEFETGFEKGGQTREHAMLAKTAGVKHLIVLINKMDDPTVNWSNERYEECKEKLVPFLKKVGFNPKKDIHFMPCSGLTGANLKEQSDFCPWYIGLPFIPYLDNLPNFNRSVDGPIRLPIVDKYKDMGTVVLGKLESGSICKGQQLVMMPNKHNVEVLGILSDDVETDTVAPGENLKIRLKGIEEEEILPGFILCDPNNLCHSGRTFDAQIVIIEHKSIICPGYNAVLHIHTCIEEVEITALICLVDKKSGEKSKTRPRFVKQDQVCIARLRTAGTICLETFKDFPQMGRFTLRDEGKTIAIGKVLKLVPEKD
# GSPT1, sequence (Q96SW2 whole entry): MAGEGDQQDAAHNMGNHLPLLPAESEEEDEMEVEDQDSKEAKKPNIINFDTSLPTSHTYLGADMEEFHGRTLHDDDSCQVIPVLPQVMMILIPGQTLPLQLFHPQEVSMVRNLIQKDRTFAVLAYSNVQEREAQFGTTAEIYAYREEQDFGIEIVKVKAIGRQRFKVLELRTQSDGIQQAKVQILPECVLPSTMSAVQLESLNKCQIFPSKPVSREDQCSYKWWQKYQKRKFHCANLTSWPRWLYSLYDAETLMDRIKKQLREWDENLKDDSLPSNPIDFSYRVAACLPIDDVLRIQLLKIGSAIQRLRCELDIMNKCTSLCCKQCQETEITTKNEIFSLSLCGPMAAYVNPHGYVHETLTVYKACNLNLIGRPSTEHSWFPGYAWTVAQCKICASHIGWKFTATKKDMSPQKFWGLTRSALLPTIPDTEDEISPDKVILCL
# GSPT1, sequence (Q16531 whole entry partner): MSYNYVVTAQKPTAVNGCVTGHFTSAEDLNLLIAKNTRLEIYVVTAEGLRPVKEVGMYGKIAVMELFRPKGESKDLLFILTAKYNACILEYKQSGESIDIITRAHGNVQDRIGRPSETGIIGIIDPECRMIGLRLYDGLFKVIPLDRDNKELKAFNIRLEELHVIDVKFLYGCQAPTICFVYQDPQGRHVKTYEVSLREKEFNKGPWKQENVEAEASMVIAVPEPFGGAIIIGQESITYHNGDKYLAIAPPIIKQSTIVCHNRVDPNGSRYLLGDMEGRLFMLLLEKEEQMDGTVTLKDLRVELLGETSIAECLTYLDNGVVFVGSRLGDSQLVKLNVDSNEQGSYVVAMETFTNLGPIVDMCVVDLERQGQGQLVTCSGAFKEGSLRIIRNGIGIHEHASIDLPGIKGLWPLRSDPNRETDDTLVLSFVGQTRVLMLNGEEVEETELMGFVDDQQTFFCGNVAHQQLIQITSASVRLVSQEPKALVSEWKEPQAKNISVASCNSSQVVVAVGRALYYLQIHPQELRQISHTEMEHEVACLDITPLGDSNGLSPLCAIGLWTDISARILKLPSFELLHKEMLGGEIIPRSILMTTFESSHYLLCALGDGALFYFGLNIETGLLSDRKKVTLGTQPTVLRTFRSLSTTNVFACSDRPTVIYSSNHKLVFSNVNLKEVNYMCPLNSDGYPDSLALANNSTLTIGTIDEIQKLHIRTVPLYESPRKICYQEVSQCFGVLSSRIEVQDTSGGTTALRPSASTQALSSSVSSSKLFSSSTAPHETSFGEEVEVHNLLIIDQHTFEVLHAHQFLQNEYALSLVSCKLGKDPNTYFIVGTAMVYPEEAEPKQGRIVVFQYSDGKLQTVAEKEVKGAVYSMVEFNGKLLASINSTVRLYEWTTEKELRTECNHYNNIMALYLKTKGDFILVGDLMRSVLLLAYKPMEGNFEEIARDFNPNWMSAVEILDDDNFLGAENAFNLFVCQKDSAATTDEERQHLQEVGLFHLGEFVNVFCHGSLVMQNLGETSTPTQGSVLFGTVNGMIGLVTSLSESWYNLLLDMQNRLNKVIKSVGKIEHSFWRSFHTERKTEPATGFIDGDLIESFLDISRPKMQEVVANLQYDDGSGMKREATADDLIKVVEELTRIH
smiles,measurement,setting,value
"O=C1CCC(N2Cc3cc(CNC(=O)C(F)(F)c4ccc(Cl)cc4)ccc3C2=O)C(=O)N1 (stereo not shown) [Compound D, 2-(4-chlorophenyl)-N-((2-(2,6-dioxopiperidin-3-yl)-1-oxoisoindolin-5-yl)methyl)-2,2-difluoroacetamide]",Reduction in GSPT1 Protein Level,"GSPT1; 100 nM Compound D, 8 hours",86%
same,Reduction in GSPT1 Protein Level,"GSPT1; 100 nM Compound D, 22 hours",100%
same,Reduction in GSPT1 Protein Level,"GSPT1; 300 nM Compound D, 8 hours",100%
same,Reduction in GSPT1 Protein Level,"GSPT1; 300 nM Compound D, 22 hours",100%
same,IC50,healthy donor PBMCs,> 10000 nM
same,IC50,"HNT-34 cells; HNT-34, read-out: anti-proliferative activity IC50",3 nM
same,IC50,"HNT-34 cells; HNT-34, 72-hour CTG assay, read-out: IC50 of the anti-proliferative effect",3 nM
